Type in all cases: cell-based
The test system of assay [1] is Mouse abdominal cavity macrophages. Description: Suppression of macrophage (microglia model) activation caused by β-amyloid, nitrogen monoxide production (Griess). Conditions: Aβ1-42 20 μg/ml, 72 hours, mouse interferon γ 250 U/ml and polymyxin B 10 μg/ml, NO production, absorbance at 570 nm. On the procedure:
(§1) Suppression of microglia activation caused by β-amyloid Mouse abdominal cavity macrophages were prepared as follows for use as a model for microglia. A mouse (C3H/He, N, male, 7-10 weeks old: Nippon SLC) was subjected to cervical vertebrae dislocation then sprayed with 70% ethanol, the skin of the abdomen was cut open leaving the muscularis, from 5 to 7 ml of PBS (phosphate buffered saline) were injected into the abdominal cavity using a 24 G injection needle, the back was squeezed firmly, then injection solution was drawn from the abdominal cavity using a 23 G injection needle. The cells in the collected solution were centrifugally sedimented (900 rpm, 5 minutes) and washed using PBS, then 8×10^4/well were inoculated onto a 96-well microplate in culture solution (DMEM (Sigma), 10% FBS (Gibco), 100 U/ml penicillin+100 μg/ml streptomycin (Sigma)) and cultured in a 5% CO2/95% air incubator at 37° C. The amount of nitrogen monoxide produced was taken as an indicator of macrophage activation. Specifically, the macrophages were incubated for 72 hours in the presence of 1) Aβ1-42 (20 μg/ml: Sigma), and 2) Aβ1-42 and the test compound, then 50 μl of Griess reagent (0.1% N-(1-naphthyl)ethylenediamine (Sigma), 1% sulphanilamide (Sigma), 3% H3PO4) were added to 50 μl of the supernatant, and the light absorbance at 570 nm was measured. It should be noted that this experiment was conducted in culture solution containing mouse interferon γ (250 U/ml: genzyme techne) and polymyxin B (10 μg/ml: Sigma). Also, the same operations were performed using zymosan A (140 ng/ml: Molecular Probes) or LPS (500 pg/ml: Sigma) instead of Aβ, as controls. For LPS, culture medium containing only mouse interferon γ was used.
(§2) The concentration when the absorbance in the presence of 2) Aβ and test compound was 50% of the absorbance when 1) only Aβ 1-42 was added was taken as IC50, and the activity of the compound was appraised in terms of this value.
(In general: Griess reagent forms a coloured azo dye with nitrite.)

The test system is the same in assay [2]. Nature of the assay: Suppression of macrophage activation caused by LPS (control), nitrogen monoxide production (Griess). Conditions: LPS 500 pg/ml instead of Aβ, 72 hours, culture medium containing only mouse interferon γ, NO production, read-out: IC50 (μg/ml) LPS. As to the method:
as §1, §2

For assay [3] the test system is unchanged. Nature of the assay: Suppression of macrophage activation caused by zymosan A (control), nitrogen monoxide production (Griess). Particulars: zymosan A 140 ng/ml instead of Aβ, 72 hours, mouse interferon γ and polymyxin B, NO production, read-out: IC50 (μg/ml) zymosan A. As to the method:
as §1, §2

The structures appear in SMILES notation. ≈ marks a conversion by molar mass, not a printed value. Where only a bound is given, the exact number is not on record here.

Take `c1ccc(CCN2CCc3c(C4CC4)nc4ncnn4c32)cc1` [Compound A]: the IC50 in assay [1] is 0.4 µg/mL (≈ 1.31 µM); in assay [2], over 5 µg/mL; in assay [3] it was over 5 µg/mL.

Take `Cc1nc2ncnn2c2c1CCN2CCc1ccccc1` [Compound B]: the IC50 in assay [1] was 0.5 µg/mL (≈ 1.79 µM); in assay [2], over 5 µg/mL; in assay [3], over 5 µg/mL.

In the case of `Cc1nc2ncnn2c2c1CCN2C(C)c1ccccc1` (stereo not drawn) [Compound C], the figures for the IC50 in assay [1], in assay [2] and in assay [3] were 0.4 µg/mL (≈ 1.43 µM), over 5 µg/mL and over 5 µg/mL, respectively.

For `Cc1nc2ncnn2c2c1CC(C)N2Cc1ccccc1F` (stereo not drawn) [Compound D], the results for the IC50 in assay [1], in assay [2] and in assay [3] were 2.3 µg/mL (≈ 7.74 µM), over 5 µg/mL and over 5 µg/mL, respectively.

For `Cc1nc2ncnn2c2c1CCN2Cc1ccccc1F` [Compound E], the IC50 was 3.2 µg/mL (≈ 11.3 µM) in assay [1], over 5 µg/mL in assay [2] and over 5 µg/mL in assay [3].

Consider `Cc1nc2ncnn2c2c1CC(C)N2Cc1ccccc1Cl` (stereo not drawn) [Compound F], for which the IC50 in assay [1] is 3.6 µg/mL (≈ 11.5 µM); in assay [2], over 5 µg/mL; in assay [3], over 5 µg/mL.

For `Cc1nc2ncnn2c2c1ccn2Cc1ccccc1Cl` [Compound G], the IC50 was 3.8 µg/mL (≈ 12.8 µM) in assay [1], over 5 µg/mL in assay [2] and over 5 µg/mL in assay [3].

As to `Cc1nc2ccnn2c2c1CCN2Cc1ccccc1` [Compound H], the IC50 in assay [1] was 4 µg/mL (≈ 15.1 µM); in assay [2] it was over 5 µg/mL; in assay [3], over 5 µg/mL.

As to `Cc1nc2ncnn2c2c1CCN2Cc1ccccc1` [Compound I], the figures for the IC50 in assay [1], in assay [2] and in assay [3] were 4.3 µg/mL (≈ 16.2 µM), over 5 µg/mL and over 5 µg/mL, respectively.

`Cc1nc2ncnn2c2c1CCN2Cc1ccccc1Cl` [Compound J]: the IC50 in assay [1] was 5 µg/mL (≈ 16.7 µM); in assay [2], over 5 µg/mL; in assay [3] it was over 5 µg/mL.

In the case of `Cc1nc2ncnn2c2c1CCN2C(C)(C)c1ccccc1` [Compound K], the IC50 in assay [1] is 5 µg/mL (≈ 17 µM); in assay [2], over 5 µg/mL; in assay [3] it was over 5 µg/mL.
